In US20040072725A1, “Remedies/preventives for inflammatory diseases” (AJINOMOTO CO. INC, priority 2001, published 2004):

How the values were obtained:
[1] = tested on: collagen-induced arthritis (CIA) in DBA-1 mice; assay: Murine collagen-induced arthritis (CIA); assay type: in vivo
Protocol: CIA induction in mice was attained by sensitizing mice with type-II collagen to trigger experimental arthritis (see Courtenay et al., Nature, 283, 666-668, 1980).
An emulsion having an antigen amount of 100 μg/0.1 ml/mouse was intracutaneously injected into the tail root of each mouse. Three weeks after the first sensitization, the same emulsion also having an antigen amount of 100 μg/0.1 ml/mouse was again intracutaneously injected into the tail root of each mouse for boosting (additional) immunization, in the same manner as that for the first sensitization. About 4 days after the additional immunization, the mice were diagnosed as being arthritic, in which reddish edema was observed. […] The level of the edema in the mice was grouped into 4 ranks, and every limb (in four limbs) of each mouse was visually checked. […]
Collagen-induced arthritis (CIA) was induced in mice in the same manner as above, and the mice were tested also in the same manner as above. […] The mice were judged on day 14 after the boosting (additional) immunization.
The test condition was the same as above. As a result, in the control group, four of the five mice developed clinical arthritis in 14 days after the second subcutaneous administration; but in the ornithine-administered group, no mice developed it within 14 days after the second subcutaneous administration.
However, it was 0 in the combined administration group.

[2] = tested on: SKG mice, model mice with spontaneously-developed chronic rheumatism (rheumatoid arthritis); assay: SKG mice with spontaneously-developed chronic rheumatism; assay type: in vivo
From the text: Regarding the score, 0 indicates no change; 0.1 indicates reddish edema seen in the finger joints of the mice; 0.5 indicates edema seen in the joints of the four limbs thereof; and 1.0 indicates serious edema seen in the joints thereof. For these, the mice were visually checked. The total of the scores of all the four limbs of each mouse is plotted in the graph.
An SKG mouse model is known as the naturally-occurring model. This is found in BALB/c mouse colonies as a mouse that develops clinical arthritis, and it is sustained through sibship mating. Regarding the thus-mated SKG mice, when they are judged at 6-month age, almost all mice have some clinical arthritis (joint edema) in any of four limb joints. The arthritis is not by vertical/horizontal infection with microorganisms but is by autosomal recessive inheritance mutation. The clinical arthritis (joint edema) starts in around 2 months after the birth essentially at the finger joints of the forepaws, and thereafter extends to the joints of the hands and the joints of the legs. After 6 months, most of the mice develop arthrosclerosis (articular rigidity). From the pathohistological viewpoint, the disease starts from synovitis to periarthritis and further toward pannus formation and cartilage/subcartilaginous bone tissue fracture and fibrillation. […] This is an extremely interesting model for studying the mechanism of delayed inflammations. As an engineering model, there is known a transgenic (tg) mouse with a Tax gene of a human T cell leukemia virus-1 (HTLV-1) inserted therein. The tg mouse has the transgene expressing in the local joints, in which inflammatory cytokines such as IL-1α, IL-1β, IL-6, TNF-α, TGF-β, IFN-γ and IL-2, as well as MHC gene are activated. […] The tg mouse is a significant model in studies where the influence of Tax gene that will be probably because of its transactivation on the production of inflammatory cytokines or the influence of viruses on the mechanism of autoimmune reaction, and the like are specifically investigated.
The pharmaceutical potency of the above-mentioned BCAA, mixture of branched amino acids, was investigated on SKG mice, model mice with spontaneously-developed chronic rheumatism (articular rheumatism). In the same manner as in Example 2, BCAA was orally administered to 4-weeks-old (before RA development) or 12-weeks-old (after RA development), male SKG mice. The dose to each mouse was 250 mg/liter.

[3] = tested on: adjuvant-induced arthritis (AA) in Lewis rats; conditions: 0.03% ornithine oral
Protocol: AA induction in rats was attained in a well-known laboratory method (see Taurog et al., Meth. Enzymolo., 162, 339-355, 1988). Specifically, 50 μ/rat of 1% (w/v) adjuvant was administered to the bottom of the right foot of each rat. One, two and three weeks after the administration, the volume of the edema in the bottom of the right foot of each rat was measured by the use of a device for measuring rats' hind leg (foot) edema.
The dose is the same as in Example 1.
On day 7, 14 and 21 after the adjuvant administration, the rats were checked for edema.

[4] = 0.03% L-ornithine oral from 4 weeks old, mice having turned 20 weeks old

For `NCCC[C@H](N)C(=O)O` [Ornithine, L-ornithine], the “Arthritis Score” value ([1]; L-ornithine 0.006 wt.% aqueous solution, day 14 after boosting immunization) was 1.0, the “Arthritis Score” value ([1]; L-ornithine 0.01% alone, oral in drinking water, day 12 after the second subcutaneous administration) was 0.8 and the “mice showing edema in leg joints” value ([1]; L-ornithine 0.01% single administration, day 12 after the second subcutaneous administration) was “three of the ten”. The “Arthritis Score” value ([1]; L-ornithine 0.03 wt.% aqueous solution, day 14 after boosting immunization) was 0.6, the “dose dependence of effect on CIA (in words)” value ([1]; L-ornithine 0.15%, 0.03%, 0.006% aqueous solutions) was “dose-response (dependent) effect of retarding clinical arthritis” and the “Arthritis Score” value ([1]; L-ornithine 0.15 wt.% aqueous solution, day 14 after boosting immunization) was 0.2. For the same compound, the “effect of feeding as solid feed on clinical arthritis (in words)” value ([1]; L-ornithine in solid feed) was “effective for retarding clinical arthritis”, the “mice that developed clinical arthritis” value ([1]; L-ornithine in solid feed, within 14 days after the second subcutaneous administration) was “no mice” and the “effect on CIA (in words)” value ([1]; ornithine 0.03% oral) was “significantly retards CIA”. The “Arthritis Score” value ([1]; ornithine 0.03% oral, day 0 after antigenation) was 0, the “Arthritis Score” value ([1]; ornithine 0.03% oral, day 4 after antigenation) was 0 and the “Arthritis Score” value ([1]; ornithine 0.03% oral, day 6 after antigenation) was 0. For the same compound, the “Arthritis Score” value ([1]; ornithine 0.03% oral, day 8 after antigenation) was 0, the “Arthritis Score” value ([1]; ornithine 0.03% oral, day 10 after antigenation) was 0 and the “Arthritis Score” value ([1]; ornithine 0.03% oral, day 12 after antigenation) was 0. The “Arthritis Score” value ([1]; ornithine 0.03% oral, day 14 after antigenation) was 0, the “tested mice showing edema” value ([1]; ornithine 0.03% oral, up to day 13 after the second subcutaneous administration) was “none” and the “arthritis (joint) score” value ([1]; ornithine 0.03% oral, whole observation (control followed up to day 17)) was “zero”. For the same compound, the “effect on clinical arthritis (joint edema) in SKG mice (in words)” value ([2]; 0.03% L-ornithine oral) was “significantly retard the clinical arthritis (joint edema)”, the arthritis score average ([2]; 0.03% L-ornithine oral from 4 weeks old, male SKG mice having turned 11 weeks old) was 0.18 and the “arthritis (joint) score average” value [2, 4] was 2.0. For the same compound, the “score reduction as compared with the control group” value [2, 4] was 35%, the “disease development (in words)” value ([2]; 0.03% L-ornithine oral started at 8 weeks old, effect lower than with start at 4 weeks old) was “the disease development was depressed in 2 weeks” and the “dose dependence of effect in SKG mice (in words)” value ([2]; L-ornithine 0.15%, 0.03%, 0.006% aqueous solutions, FIG. 3) was “dose-dependent (response) effect of retarding clinical arthritis”. The “effect on clinical arthritis in AA models (in words)” value [3] was “significantly retards clinical arthritis”.
